Assay results: article PMC12148380 (iScience, 2025)
Read-outs that look alike come from different tables or passages of the source. Where a SMILES comes first, the peptide text is derived from it.

Columns and labels:
Assay in all cases: microscale thermophoresis
Format in all cases: binding
[1] = target: T1, orotate phosphoribosyltransferase (PyrE) (Escherichia coli, UniProt P0A7E3)
T1 sequence (P0A7E3 2-213): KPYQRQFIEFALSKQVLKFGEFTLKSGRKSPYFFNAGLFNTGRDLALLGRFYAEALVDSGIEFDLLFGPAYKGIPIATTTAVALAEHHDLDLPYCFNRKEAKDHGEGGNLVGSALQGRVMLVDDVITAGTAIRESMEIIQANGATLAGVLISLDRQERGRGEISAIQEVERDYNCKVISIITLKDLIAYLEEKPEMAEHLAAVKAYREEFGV

FabF = target: T2, FabF (Escherichia coli, UniProt P0AAI5)
T2 sequence (P0AAI5 2-413): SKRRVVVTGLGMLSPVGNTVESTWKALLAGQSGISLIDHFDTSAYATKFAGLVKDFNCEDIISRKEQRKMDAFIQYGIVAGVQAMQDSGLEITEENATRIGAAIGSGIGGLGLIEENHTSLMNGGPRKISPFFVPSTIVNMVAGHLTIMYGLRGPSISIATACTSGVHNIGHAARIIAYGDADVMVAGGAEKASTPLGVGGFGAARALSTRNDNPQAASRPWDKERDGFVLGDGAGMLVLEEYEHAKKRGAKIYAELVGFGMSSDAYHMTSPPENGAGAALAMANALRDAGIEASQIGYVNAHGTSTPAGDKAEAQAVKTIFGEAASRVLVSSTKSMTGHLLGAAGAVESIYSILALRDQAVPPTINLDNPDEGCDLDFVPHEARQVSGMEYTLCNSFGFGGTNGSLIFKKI

[2] = target: T1, orotate phosphoribosyltransferase (PyrE); remark: listed apart in the source

`O=P(O)(O)OC[C@H]1O[C@H](OP(=O)(O)OP(=O)(O)O)[C@H](O)[C@@H]1O` [PRPP] showed a Kd [1] of 8.21 µM.

`CC(C)CC(NC(=O)C(N)C(C)C)C(=O)O` (stereo not drawn) [Val-Leu] (H-Val-Leu-OH; configuration not given here) showed a Kd (FabF) of 12 to 14 µM.

For `Cc1cc2nc3[nH]c(=O)[nH]c(=O)c3nc2cc1C` [lumichrome], the Kd [2] was 90.3 µM.
